{"source": "patent US20160256510A1", "about": "“PALIURUS RAMOSISSIMUS (LOUR.) POIR EXTRACT AND PREPARATION METHOD AND USES THEREOF” (priority 2013, published 2016)", "key": {"S180": {"system": "S180", "experiment": "Mice bearing S180, tumor weight and inhibition rate", "type": "in vivo, Kunming mice", "experimental": "(§1) Choose mice which are in good health conditions and received S180 tumor injection 8 days ago, disinfect abdominal skin, draw ascites, mix with normal saline as ratio of 1:4 (ascites volume:normal saline volume) to make suspension. […] In all groups, subcutaneously inject 0.2 ml of the aforementioned suspension at the right anterior lobe. 2 hours after injection, mice in control group and drug groups receive test substance or suspension via intragastric administration once a day for 14 consecutive days. In positive control group, CTX is administered intraperitoneally once every other day for a total of 7 times.\nas §1, with “intragastric or intravenous” for “intragastric”"}, "transplanted tumor S 180": {"system": "transplanted tumor S 180", "details": "control group (positive control cyclophosphamide 85 mg/kg daily)", "experimental": "Take Kunming mice, subcutaneously inject 0.2 ml of S180 suspension (about 1×10^6 tumor cells) in a routine way at the right anterior lobe. 24 hours after injection, mice are randomly grouped and numbered. There are 10 mice in the control groups, and 10 mice each in test groups of high dose, middle dose, and low dose. Mice in each group receive drugs via intragastric administration once a day for a total of 14 times. In positive control group, cyclophosphamide (85 mg/kg) is given daily, and the dose, frequency, time are identical with the test groups."}, "pulmonary fibrosis": {"system": "pulmonary fibrosis", "experiment": "Bleomycin-induced pulmonary fibrosis in rats", "type": "in vivo, SD rats", "details": "lung, 30 days", "experimental": "Take 60 SD rats (200-240 g, male), randomly divide into sham operation control group (0.5% mucilage tragacanth), model control group (0.5% mucilage tragacanth), positive control group (dexamethasone, 1 mg/kg), Paliurus ramosissimus (Lour) Poir. extract (prepared according to Embodiment 1) low-dose group (0.4 g/kg), Paliurus ramosissimus (Lour) Poir. extract middle-dose group (0.8 g/kg), and Paliurus ramosissimus (Lour) Poir. extract high-dose group (1.6 g/kg) with stratification of body weight. All animals receive trachea separation under anesthesia by intraperitoneal injection of 10% chloral hydrate (350 mg/kg). Except the sham operation control group, rats in other groups receive injection of 5 mg/kg of bleomycin in 0.4 ml of normal saline solution, while rats in sham operation control group receive normal saline solution only. From the next day after surgery, test substance is given daily for 30 consecutive days. Sacrifice the animals by cervical dislocation, and take the lungs; some organs are homogenized for hydroxyproline content determination, and some are for pathological examination.\nTake 60 SD rats (200-240 g, male), randomly divide into sham operation control group, model control group, positive control group (dexamethasone, 1 mg/kg), Paliurus ramosissimus (Lour) Poir. extract group (prepared according to Embodiment 1, 0.8 g/kg. op), Ligustrazine (40 mg/kg, ip)and drug combination group (Paliurus ramosissimus (Lour) Poir. Extract 0.8 g/kg, op; Ligustrazine injection40 mg/kg, ip) with stratification of body weight. All animals receive trachea separation under anesthesia by intraperitoneal injection of 10% chloral hydrate (350 mg/kg). Except the sham operation control group, rats in other groups receive injection of 5 mg/kg of bleomycin in 0.4 ml of normal saline solution, while rats in sham operation control group receive normal saline solution only. The next day after the surgery, give the test substance via intragastric administration or injection administration, test substance is given daily for 30 consecutive days. […]"}, "[1]": {"system": "experimental hepatic fibrosis", "experiment": "Carbon tetrachloride-induced liver fibrosis in rats", "type": "in vivo, SD rats", "details": "3 months", "experimental": "Take 60 SD rats (200-240 g, male), randomly divide into blank control group (0.5% mucilage tragacanth), model control group (0.5% mucilage tragacanth), positive control group (dexamethasone, 1 mg/kg), Paliurus ramosissimus (Lour) Poir. extract (prepared according to Embodiment 1) low-dose group (0.4 g/kg), Paliurus ramosissimus (Lour) Poir. extract middle-dose group (0.8 g/kg), and Paliurus ramosissimus (Lour) Poir. extract high-dose group (1.6 g/kg) with stratification of body weight. Except the blank control group, rats in other groups receive subcutaneous injection of 1 ml/kg of 40% carbon tetrachloride in vegetable oil solution, 2 times a week for 3 consecutive months, while receiving high-fat diet and 5% ethanol aqueous solution. Test substance is given via intragastric administration once daily for 3 consecutive months. On the next day after drug administration, draw abdominal aortic blood, separate plasma, determine the levels of alanine aminotransferase (ALT), III procollagen (PC-III), hyaluronic acid (HA) and laminin (LH); the sacrifice the animals, and take the liver for pathological examination.\nTake 60 SD rats (200-240 g, male), randomly divide into blank control group, model control group, positive control group (dexamethasone, 1 mg/kg), Paliurus ramosissimus (Lour) Poir. extract group (prepared according to Embodiment 1, 0.8 g/kg), Polyene phosphatidylcholine group, drug combination group (Paliurus ramosissimus (Lour.) Poir. Extract0.8 g/kg+Polyene phosphatidylcholine1 ml/kg) with stratification of body weight. Except the blank control group, rats in other groups receive subcutaneous injection of 1 ml/kg of 40% carbon tetrachloride in vegetable oil solution, 2 times a week for 3 consecutive months, while receiving high-fat diet and 5% ethanol aqueous solution. Test substance is given via intragastric administration once daily for 3 consecutive months. On the next day after drug administration, draw abdominal aortic blood, separate plasma, determine the levels of alanine aminotransferase (ALT), III procollagen (PC-III), hyaluronic acid (HA) and laminin (LH); the sacrifice the animals, and take the liver for pathological examination."}, "TNBS induced colitis": {"system": "TNBS induced colitis", "experiment": "TNBS induced experimental colitis in rats", "type": "in vivo", "details": "2 mg/kg", "experimental": "After the animals are fasted for 24 h, perform anesthesia with sodium pentobarbital. Except the sham operation group, perform coloclysis with TNBS and 40% ethanol, and replicate experimental colitis model; 6 h after model construction, administer test substance. At the day 5 of administration, draw tail vein blood and count leukocyte. At day 6, perform urethane anesthesia, draw abdominal aortic blood and sacrifice the animals by cervical dislocation. Cut 9 cm colon from the anus, in an ice bath, cut intestine along the mesenteric edge, wash out the contents, measure the ulcer area, calculate the percentage of ulcer area; weigh the colon, scrap colonic mucosa, and determine tumor necrosis factor (TNF-α) concentration with ELISA method."}, "peritoneal macrophages": {"system": "peritoneal macrophages", "experiment": "Peritoneal macrophage phagocytosis of normal mice", "type": "in vivo, KM mice", "details": "inhibition effect positive control 0.1 g/kg, one subcutaneous injection at day 13", "quoted_text": "Except that the mice in inhibition effect positive control group receive one dose of subcutaneous injection at day 13, mice in other groups receive test substance or suspension via intragastric administration once a day for 14 consecutive days. At day 13 and 14, apply intraperitoneal injection of 6% starch solution respectively. 1 h after the last administration at day 14, apply intraperitoneal injection of 1 ml of 5% chicken erythrocytes in saline suspension; 30 min later, sacrifice the mice by cervical dislocation, apply intraperitoneal injection of 2 ml saline, and gently massage the abdomen. 1 min later, cut open abdomen, draw 1 ml of peritoneal washings, evenly drop on two slides, place in a wet box, and incubate at 37° C. for 30 min. Rinse in saline, dry, fix with 1:1 acetone-methanol solution, stain with 4% (v/v) Giemsa-PBS for 3 min, rinse with distilled water and dry, perform microscopic examination, and calculate the percentage of phagocytosis."}, "Ehrlich ascites tumor": {"system": "Ehrlich ascites tumor", "experiment": "Mice bearing Ehrlich ascites tumor, survival time and ascites weight", "type": "in vivo, Kunming mice", "details": "40 mg/kg intraperitoneally every other day, 7 times", "experimental": "Choose mice which are in good health conditions and received Ehrlich ascites tumor injection 8 days ago, disinfect abdominal skin, draw ascites, mix with normal saline to […] for future use. […] In all groups, subcutaneously inject 0.2 ml of the aforementioned suspension at the right anterior lobe. 2 hours after injection, mice in control group and drug groups receive test substance or suspension via intragastric administration once a day, administer continuously until the animal is dying. In positive control group, CTX is administered intraperitoneally once every other day for a total of 7 times. When the animal is dying, sacrifice it by cervical dislocation; the day of dying is calculated as survival time; after death, weigh, exhaust ascites, weigh again, and the difference is the weight of ascites."}, "[2]": {"system": "pylorus ligation induced gastric ulcer", "experiment": "Pylorus ligation induced experimental gastric ulcer in rats", "type": "in vivo", "details": "60 mg/kg intragastric, 3 days", "source_text": "(§2) In all groups, mice receive test substance via intragastric administration once a day for 3 consecutive days.\nas §2"}, "[3]": {"details": "Table 8, 1 ml/kg once a day, 14 days"}, "[4]": {"details": "Table 8, 5 mg/kg once a day, 14 days"}, "[5]": {"details": "Table 11, dexamethasone 1 mg/kg"}, "[6]": {"details": "Table 6, 40 mg/kg intraperitoneally every other day, 7 times"}, "[7]": {"details": "Table 8, 40 mg/kg intraperitoneally every other day, 7 times"}, "[8]": {"details": "Table 11, polyene phosphatidylcholine group (1 ml/kg in the combination)"}}, "note": "Marks after values point to notes of the source that are not given here.", "data": [{"compound": "CC(=O)O[C@H]1[C@H]2O[C@]23[C@@H]2CC[C@]4(O)C[C@@H](O)CC[C@]4(C)[C@H]2CC[C@]3(C)[C@H]1c1ccc(=O)oc1", "note": "[Cinobufotalin, cinobufotalin]", "values": [{"measurement": "Tumor inhibition rate (%)", "setting": "S180; [3]", "value": 43.8, "unit": "%"}, {"measurement": "Tumor weight", "setting": "S180; [3]", "value": "0.73 ± 0.42", "unit": "g"}]}, {"compound": "O=P1(N(CCCl)CCCl)NCCCO1", "note": "(stereo not shown) [Control group, cyclophosphamide]", "values": [{"measurement": "Tumor inhibition rate", "setting": "transplanted tumor S 180", "value": "38.45 ± 3.62", "unit": "%"}]}, {"compound": "Cc1nc(C)c(C)nc1C", "note": "[Ligustrazine]", "values": [{"measurement": "Hydroxyproline content (mg/gpro)", "setting": "pulmonary fibrosis; Table 12, 40 mg/kg ip daily", "value": "14.6 ± 5.7", "unit": "mg/gpro"}]}, {"compound": "CC(=O)O[C@H]1C(=O)[C@@]2(C)[C@H]([C@H](OC(=O)c3ccccc3)[C@]3(O)C[C@H](OC(=O)[C@H](O)[C@@H](NC(=O)c4ccccc4)c4ccccc4)C(C)=C1C3(C)C)[C@]1(OC(C)=O)CO[C@@H]1C[C@@H]2O", "note": "[Paclitaxel, paclitaxel]", "values": [{"measurement": "Tumor inhibition rate (%)", "setting": "S180; [4]", "value": 34.6, "unit": "%"}, {"measurement": "Tumor weight", "setting": "S180; [4]", "value": "0.85 ± 0.38", "unit": "g"}]}, {"compound": "C[C@@H]1C[C@H]2[C@@H]3CCC4=CC(=O)C=C[C@]4(C)[C@@]3(F)[C@@H](O)C[C@]2(C)[C@@]1(O)C(=O)CO", "note": "[Positive Control, dexamethasone]", "values": [{"measurement": "Hydroxyproline content (mg/gpro)", "setting": "pulmonary fibrosis; Table 10, dexamethasone 1 mg/kg daily", "value": "13.6 ± 3.3", "unit": "mg/gpro"}, {"measurement": "Hydroxyproline content (mg/gpro)", "setting": "pulmonary fibrosis; Table 12, dexamethasone 1 mg/kg daily", "value": "13.4 ± 3.7", "unit": "mg/gpro"}, {"measurement": "ALT (U/L)", "setting": "[1]; Table 9, dexamethasone 1 mg/kg", "value": "456 ± 98", "unit": "U/L"}, {"measurement": "HA", "setting": "[1]; Table 9, dexamethasone 1 mg/kg", "value": "280 ± 54", "unit": "µg/L"}, {"measurement": "LN", "setting": "[1]; Table 9, dexamethasone 1 mg/kg", "value": "62 ± 20", "unit": "µg/L"}, {"measurement": "PC-III", "setting": "[1]; Table 9, dexamethasone 1 mg/kg", "value": "20.8 ± 3.1", "unit": "µg/L"}, {"measurement": "ALT (U/L)", "setting": "[1]; [5]", "value": "478 ± 90", "unit": "U/L"}, {"measurement": "HA", "setting": "[1]; [5]", "value": "285 ± 57", "unit": "µg/L"}, {"measurement": "LN", "setting": "[1]; [5]", "value": "65 ± 23", "unit": "µg/L"}, {"measurement": "PC-III", "setting": "[1]; [5]", "value": "20.6 ± 3.8", "unit": "µg/L"}, {"measurement": "Ratio of ulcer area (%)", "setting": "TNBS induced colitis; colon, day 6", "value": "28.6 ± 10.5", "unit": "%"}, {"measurement": "TNF-α (ng/gpro)", "setting": "TNBS induced colitis; colonic mucosa, ELISA", "value": "73.2 ± 19.6", "unit": "ng/gpro"}, {"measurement": "Leukocyte count (10^9/L)", "setting": "TNBS induced colitis; tail vein blood, day 5", "value": "8.4 ± 0.9** 10^9/L"}]}, {"compound": "O=P1(N(CCCl)CCCl)NCCCO1", "note": "(stereo not shown) [ctx, cyclophosphamide]", "values": [{"measurement": "Percentage of phagocytosis", "setting": "peritoneal macrophages", "value": "0.12 ± 0.03"}, {"measurement": "Survival time", "setting": "Ehrlich ascites tumor", "value": "17.2 ± 2.3", "unit": "days"}, {"measurement": "Weight of ascites", "setting": "Ehrlich ascites tumor", "value": "15.9 ± 1.5"}, {"measurement": "Tumor inhibition rate (%)", "setting": "S180; [6]", "value": 70.8, "unit": "%"}, {"measurement": "Tumor weight", "setting": "S180; [6]", "value": "0.35 ± 0.58", "unit": "g"}, {"measurement": "Tumor inhibition rate (%)", "setting": "S180; [7]", "value": 63.1, "unit": "%"}, {"measurement": "Tumor weight", "setting": "S180; [7]", "value": "0.48 ± 0.41", "unit": "g"}]}, {"compound": "CNC(=C[N+](=O)[O-])NCCSCc1ccc(CN(C)C)o1", "note": "[ranitidine]", "values": [{"measurement": "Ulcer index", "setting": "[2]; Table 19", "value": "1.5 ± 0.4"}, {"measurement": "Inhibition rate (%)", "setting": "[2]; Table 19, ulcer", "value": 68.1, "unit": "%"}, {"measurement": "Ulcer index", "setting": "[2]; Table 22", "value": "1.8 ± 0.6"}, {"measurement": "Ulcer inhibition rate (%)", "setting": "[2]; Table 22", "value": 60.0, "unit": "%"}]}, {"compound": "Polyene phosphatidylcholine", "values": [{"measurement": "ALT (U/L)", "setting": "[1]; [8]", "value": "443 ± 130", "unit": "U/L"}, {"measurement": "HA", "setting": "[1]; [8]", "value": "284 ± 78", "unit": "µg/L"}, {"measurement": "LN", "setting": "[1]; [8]", "value": "63 ± 18", "unit": "µg/L"}, {"measurement": "PC-III", "setting": "[1]; [8]", "value": "27.0 ± 4.8", "unit": "µg/L"}]}]}
